The numbers were not newly measured in patent publication US9635858B2, “Pesticide and a method of controlling a wide variety of pests” (GOWAN COMERCIO INTERNACIONAL E SERVICOS LIMITADA, priority 2011, dated 2017), which cites them from elsewhere.

Molecules are shown by their SMILES.

For this data set the following is noted: rats; cited from earlier work.

Turning to `C/C=C(\C)C(=O)O[C@H]1C[C@@H](OC(C)=O)[C@@]2(C(=O)OC)CO[C@H]3[C@@H](O)[C@@](C)([C@]45O[C@@]4(C)[C@H]4C[C@@H]5O[C@@H]5OC=C[C@@]54O)C4[C@]1(CO[C@]4(O)C(=O)OC)[C@@H]32` (stereo partly shown) [Azadirachtin], the LD50 was > 3,540 mg/kg.
